The source of these data is US5827845A, “Cephalosporin derivative” (priority 1993, dated 1998).

Series [1] is described as follows: blood concentration pharmacokinetics after subcutaneous injection in mice. It is filed as in vivo, mice (Jcl;ICR strain). Here is the method: The test procedure used was as follows: Thus, to mice of Jcl;ICR strain (4 week-aged, male) each was administered subcutaneously an aqueous solution containing 2.5 mg/ml of a test compound dissolved in distilled water sterilized for injections, in such a way that 0.2 ml of said aqueous solution (corresponding to a dosage of the test compound of 0.5 mg per mouse) was injected to one mouse. At the time-points of 5, 15, 30, 60 and 120 minutes after the administration, the blood samples were collected from the armpit of mouse. The blood samples so collected were each allowed to stand for about 2 hours at room temperature and then centrifuged for 10 minutes in a centrifugal separator to recover the serum. The serum obtained was mixed well with an equal volume of methanol added thereto, and the resulting mixture was centrifuged at 12,000 rpm. for 3 minutes. The supernatant obtained was passed through a filter (Sumplep LCR-13-LH) to obtain the serum sample to be assayed by a high performance liquid chromatography (HPLC). This serum sample was assayed by HPLC to measure quantitatively the concentration of the test compound in the serum.
For each test compound, its half-life value in blood and its AUC (Area under the plasma concentration-time curve),which are the pharmacokinetic parameters, were evaluated according to the method of Gauss-Newton.
For the comparison purpose, the ME1206 compound was also tested in the same manner as above.

The subject of the next series is Morganella morganii 1510. Kind of series: minimum growth inhibitory concentration, serial dilution method. It is filed as cell-based. The settings on record: Morganella morganii, 1510, Morganella morganii 1510; sodium salts; 35° C., 18-20 hours; read-out: Minimum growth inhibition concentrations (MIC). The procedure:
(§1) The determination of MIC. was conducted by inoculating the test microorganism to an incubation medium N for sensitive disc (a product of Nissui Seiyaku Co., Japan), effecting the incubation at 35° C. for 18-20 hours and then estimating the growth of the bacteria. The compounds tested were the sodium salts of Compound A to Compound F indicated below:
(§2) For the comparison purpose, the values similarly determined of MIC. ([…]) of ME1206 compound (sodium salt), Cefdinir (sodium salt) (abbreviated as CFDN) and Cefixime (sodium salt) (abbreviated as CFIX) are also shown in Table 1.

Series [2] concerns Serratia marcescens No. 1. The description is as above. It is filed as cell-based. The conditions noted are these: sodium salts, 35° C., 18-20 hours, read-out: Minimum growth inhibition concentrations (MIC). Here is the method: as §1, §2
For series [3], the system named is Enterococcus hirae ATCC 8043. The series is described as above. The format is cell-based. The conditions noted are these: Enterococcus hirae, ATCC8043, Enterococcus hirae ATCC 8043; sodium salts; 35° C., 18-20 hours; read-out: Minimum growth inhibition concentrations (MIC). Here is the method: as §1, §2
The test system of series [4] is Staphylococcus aureus M133*. The description is as above. It is filed as cell-based. The settings on record: Staphylococcus aureus, MRSA, S. aureus M133, methicillin-resistant (MRSA); sodium salts; 35° C., 18-20 hours; read-out: Minimum growth inhibition concentrations (MIC). The procedure:
as §1, §2

Series [5] deals with Enterococcus faecalis W-73. The description is as above. The format is cell-based. The settings on record: Enterococcus faecalis, W73, Enterococcus faecalis W-73; sodium salts; 35° C., 18-20 hours; read-out: Minimum growth inhibition concentrations (MIC). Here is the method:
as §1, §2

The test system of another series is Escherichia coli GN 206. The series is described as above. The conditions noted are these: Escherichia coli, GN206, Escherichia coli GN 206; sodium salts; 35° C., 18-20 hours; read-out: Minimum growth inhibition concentrations (MIC). It is filed as cell-based. The procedure: as §1, §2
Series [6] has as its system Enterobacter cloacae G-0008. The series is described as above. The conditions noted are these: G0008, sodium salts, 35° C., 18-20 hours, read-out: Minimum growth inhibition concentrations (MIC). It is filed as cell-based. Here is the method:
as §1, §2

In series [7] the test system is Staphylococcus aureus M126*. The description is as above. It is filed as cell-based. The conditions noted are these: Staphylococcus aureus; S. aureus M126, methicillin-resistant (MRSA); sodium salts; 35° C., 18-20 hours; read-out: Minimum growth inhibition concentrations (MIC). The procedure:
as §1, §2

Series [8] relates to Staphylococcus aureus 209P JC-1. The series is described as above. It is filed as cell-based. The settings on record: Staphylococcus aureus, 209P, S. aureus 209P JC-1; sodium salts; 35° C., 18-20 hours; read-out: Minimum growth inhibition concentrations (MIC). The procedure:
as §1, §2

Molecules are shown by their SMILES.

A word on the half-life: it is the time in which the quantity being followed falls by half. On to `Nc1nc(C(=NO)C(=O)NC2C(=O)N3C(C(=O)O)=C(C=Cc4scnc4Cl)CSC23)cs1` (stereo not drawn) [Compound A, 7-[2-Hydroxyimino-2-(2-aminothiazol-4-yl)acet-amido]-3-[2-(4-chlorothiazol-5-yl)vinyl]-3-cephem-4-carboxylic acid (syn-isomer, cis-isomer)], for which the “concentration in blood (in words)” value in series [1] (injected subcutaneously, mice) is “capable of maintaining a high concentration in blood”. In addition, in [1] (mouse, serum, sc, 0.5 mg, sodium salt, subcutaneous, 0.5 mg per mouse, HPLC of serum), the half-life is 1.1 h. The AUC in series [1] (mouse, serum, sc, 0.5 mg, sodium salt, subcutaneous, 0.5 mg per mouse, HPLC of serum, read-out: AUC (area under the plasma concentration-time curve)) was 211 µg·h/mL. Also, the MIC was 12.5 µg/mL in the series with Morganella morganii 1510; 1.56 µg/mL in series [2]; 12.5 µg/mL in [3]; 6.25 µg/mL in series [4]; 6.25 µg/mL in series [5]; 1.56 µg/mL in the series on Escherichia coli GN 206. The MIC in series [6] turned out to be 1.56 µg/mL; in series [7], 25 µg/mL; in series [8] it was 0.1 µg/mL.
